In test [1] the target is T1, porcine liver carboxylesterase (CaE) (Sus scrofa, UniProt Q29550).
T1 sequence (Q29550 19-566): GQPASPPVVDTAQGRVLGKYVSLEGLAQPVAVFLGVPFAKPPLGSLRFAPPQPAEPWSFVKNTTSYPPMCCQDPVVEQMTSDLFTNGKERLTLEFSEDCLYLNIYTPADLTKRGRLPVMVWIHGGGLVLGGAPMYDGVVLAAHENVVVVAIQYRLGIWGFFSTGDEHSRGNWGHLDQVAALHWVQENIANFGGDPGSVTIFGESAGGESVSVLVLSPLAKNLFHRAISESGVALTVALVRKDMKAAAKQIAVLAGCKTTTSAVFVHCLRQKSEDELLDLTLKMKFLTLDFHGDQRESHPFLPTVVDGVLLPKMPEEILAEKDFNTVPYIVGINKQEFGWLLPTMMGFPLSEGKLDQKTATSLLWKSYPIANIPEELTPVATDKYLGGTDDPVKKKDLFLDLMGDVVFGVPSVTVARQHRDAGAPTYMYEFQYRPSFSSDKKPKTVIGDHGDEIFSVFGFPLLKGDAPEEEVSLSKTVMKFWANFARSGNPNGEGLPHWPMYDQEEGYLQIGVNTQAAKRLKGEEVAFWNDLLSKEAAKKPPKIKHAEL
The test can be described thus: CaE inhibition (4-nitrophenyl acetate hydrolysis). The note with it: for % inhibition of CaE at 20 µM / inhibition at 20 µM: mean ± SEM, n ≥ 3, n.a. = not active at 20 µM; for IC50: read-out: IC50 CaE. The test is classed as biochemical. As to the method:
Acetylcholinesterase (AChE, EC 3.1.1.7, from human erythrocyte and E. electricus (EeAChE) (type VI-S), butyrylcholinesterase (BChE, EC 3.1.1.8, from equine serum), carboxylesterase (CaE, EC 3.1.1.1, from porcine liver), acetylthiocholine iodide (ATCh), butylthiocholine iodide (BTCh), 5,5′-dithiobis-(2-nitrobenzoic acid) (DTNB), 4-nitrophenyl acetate (4-NPA), were purchased from Sigma-Aldrich (Germany).
AChE and BChE activities were measured by the Ellman method as described earlier. The assay solution consisted of 0.1 M K/Na phosphate buffer pH 7.5, 25 °C with the addition of 0.33 mM DTNB, 0.02 unit/mL of AChE or BChE, and 1 mM of substrate (ATCh or BTCh, respectively). The assays were carried out with a reagent blank containing all components except AChE or BChE to account for non-enzymatic hydrolysis of substrate. In addition, an enzyme blank was included that contained all components except substrate to account for non-substrate sulfhydryl groups. […] The assay solution consisted of 0.1 M K/Na phosphate buffer pH 8.0, 25 °C with the addition of 1 mM 4-nitrophenyl acetate and 0.02 unit/mL of CaE. Assays were carried out with a blank containing all components except CaE.
The test compounds were dissolved in DMSO; the incubation mixture contained 2% (v/v) of the solvent. […] The test compounds were added to the assay solution and preincubated at 25°C with the enzymes for 5 min followed by the addition of substrate. A parallel control was made for the assay solution with no inhibitor. […] Each experiment was performed three times. The results were expressed as the mean ± SEM. The reaction rates in the presence and absence of inhibitor were compared, and the percent of residual enzyme activity due to the presence of test compounds was calculated.

The test system of test [2] is isolated rat liver mitochondria. As to the kind of experiment: Inhibition of iron-induced lipid peroxidation (TBARs). The note with it: read-out: IC50 of Fe3+-induced LP, LP induced by 0.5 mM Fe3+, mean ± SEM, n ≥ 3.
Test [3] has the same test system. The test can be described thus: Mitochondrial membrane potential (safranine O). The test is classed as biochemical. As to conditions: 30 µM, 10-min incubation, mean ± SD, n ≥ 5; for ΔΨm, % depolarization, CI (g/m): energized with Complex-I substrates (glutamate, malate); for ΔΨm, % depolarization, CII (s/r): energized with succinate in the presence of rotenone. An excerpt: Mitochondria and the mitochondrial permeability transition (MPT) are key players in the cascades of events leading to cell death. Consequently, inhibition of the MPT is a promising target in neuroprotection. On the other hand, depolarization of mitochondria is widely used a predictor of toxicity[72] but depolarization connected with uncoupling of the respiratory chain or stimulation of electron flux can also be cytoprotective. Due to its redox-cycling capability, MB can restore the electron flux in the respiratory chain in the presence of inhibitors of complex-I[74]. […] Consequently, we measured the effect of our conjugates of MB and γ-carbolines on mitochondrial membrane potential under two conditions. (C1) Mitochondria were energized with NADH-dependent substrates of Complex-I (glutamate and malate). (CII) Mitochondria were energized with an FADH2-dependent substrate of Complex II (succinate) in the presence of rotenone, a Complex-I inhibitor. Conjugates (30 μM) were incubated with mitochondria and the effect on mitochondrial membrane potential was measured. For comparison, mitochondria were incubated with MB, MBH2, and Dimebon (30 μM each).
Safranine O (10 µM) was used as a membrane potential probe. Fluorescence intensity at 580 nm (excitation at 520 nm) was measured with Victor3 multi-well fluorescence plate reader (Perkin Elmer, Germany). Mitochondrial protein concentration was 0.2 mg/ml. The medium for measurements contained 75 mM sucrose, 225 mM mannitol, 10 mM K-HEPES, 0.02 mM EGTA, and 1 mM KH2PO4 (pH 7.4, 25 °C). After a 5-min incubation, 5 mM glutamate/malate or 5 mM succinate and 0.5 μM rotenone were added to produce the mitochondrial potential. Then the compounds (30 μM) or the same volume of vehicle (DMSO) were injected into the mitochondrial suspension. After 15–20 min, CaCl2 (12.5 μM) was added to each probe to induce the depolarization of mitochondria and after 5 min 0.5 µM carbonyl cyanide m-chlorophenyl hydrazone (CCCP) was added for maximum depolarization of mitochondria. The level of depolarization (ΔΨm) was calculated from the fluorescence value after a 10-min incubation with 30 µM of compounds (or vehicle) normalized between fluorescence measurements after substrate and CCCP additions.

These results are taken from article PMC6424957 (Scientific Reports, 2019).

What is called IC50 is the midpoint of a concentration-inhibition curve. In the case of `CN1CCc2c(c3ccccc3n2CCC(=O)N2c3ccc(N(C)C)cc3Sc3cc(N(C)C)ccc32)C1.Cl.Cl.Cl` [Compound 1], in test [1], the “% inhibition of CaE at 20 µM” value was 21.5 ± 2.3% and the IC50 is over 20 µM. For the same molecule, the IC50 in test [2] came out at 1.45 ± 0.29 µM. In test [3], the “ΔΨm, % depolarization, CI (g/m)” value is given as 20 ± 1% and the “ΔΨm, % depolarization, CII (s/r)” value turned out to be 64 ± 2%.
The corresponding values for `CCN1CCc2c(c3ccccc3n2CCC(=O)N2c3ccc(N(C)C)cc3Sc3cc(N(C)C)ccc32)C1.Cl.Cl.Cl` [Compound 2] are 18.1 ± 1.7%, over 20 µM, 0.68 ± 0.07 µM, 7 ± 1% and 48 ± 1%.
As usually defined, the inhibition is how much of the control response was suppressed. Low values mean a weak effect, high ones a strong effect. With `Cc1ccc2c(c1)c1c(n2CCC(=O)N2c3ccc(N(C)C)cc3Sc3cc(N(C)C)ccc32)CCN(C)C1` [Compound 3], in test [1], at 20 µM the inhibition was 26% and the IC50 was over 20 µM. Further, the IC50 in test [2] was determined as 2.29 ± 0.47 µM. Also, in test [3], the “ΔΨm, % depolarization, CI (g/m)” value is 29 ± 11% and the “ΔΨm, % depolarization, CII (s/r)” value worked out at 67 ± 2%.
`CCN1CCc2c(c3cc(C)ccc3n2CCC(=O)N2c3ccc(N(C)C)cc3Sc3cc(N(C)C)ccc32)C1.Cl.Cl.Cl` [Compound 4]: in test [1], the “% inhibition of CaE at 20 µM” value is on record as 15.7 ± 1.8% and the IC50 is over 20 µM. The IC50 in test [2] was 0.71 ± 0.01 µM. Besides, in test [3], the “ΔΨm, % depolarization, CI (g/m)” value is 9 ± 1% and the “ΔΨm, % depolarization, CII (s/r)” value is reported as 43 ± 3%.
As for `CCCN1CCc2c(c3cc(C)ccc3n2CCC(=O)N2c3ccc(N(C)C)cc3Sc3cc(N(C)C)ccc32)C1.Cl.Cl.Cl` [Compound 5], in test [1], the “% inhibition of CaE at 20 µM” value turned out to be 9.8 ± 1.4% and the IC50 was over 20 µM. Moreover, the IC50 in test [2] amounted to 0.75 ± 0.01 µM. Moreover, in test [3], the “ΔΨm, % depolarization, CI (g/m)” value was 17 ± 2% and the “ΔΨm, % depolarization, CII (s/r)” value is recorded as 69 ± 2%.
For `Cc1ccc2c(c1)c1c(n2CCC(=O)N2c3ccc(N(C)C)cc3Sc3cc(N(C)C)ccc32)CCN(C(C)C)C1.Cl.Cl.Cl` [Compound 6] the same measures were 19.5 ± 1.8%, over 20 µM, 0.58 ± 0.03 µM, 8 ± 2% and 44 ± 5%.
Turning to `CN1CCc2c(c3cc(F)ccc3n2CCC(=O)N2c3ccc(N(C)C)cc3Sc3cc(N(C)C)ccc32)C1` [Compound 7], in test [1], testing at 20 µM gave an inhibition of 13.8% and the IC50 is over 20 µM. For the same molecule, the IC50 in test [2] was 3.2 ± 0.4 µM. In addition, in test [3], the “ΔΨm, % depolarization, CI (g/m)” value is on record as 13 ± 3% and the “ΔΨm, % depolarization, CII (s/r)” value came to 67 ± 1%.
The corresponding values for `CN(C)c1ccc2nc3ccc(=[N+](C)C)cc-3sc2c1` [MB, methylene blue, reference compound] are 12.3%, over 20 µM, 4 ± 0.6 µM, 14 ± 7% and 40 ± 9%.
As to `CN(C)c1ccc2c(c1)Sc1cc(N(C)C)ccc1N2` [MBH2, leucomethylene blue, reference compound], in test [1], the inhibition at 20 µM is 17.2% and the 50% inhibitory concentration (IC50) was over 20 µM. The IC50 in test [2] is 1.58 ± 0.49 µM. Besides, in test [3], the “ΔΨm, % depolarization, CII (s/r)” value is 18 ± 1%.
